The text below walks through data of ChEMBL document CHEMBL1909046, “DrugMatrix in vitro pharmacology data”.

The target in assay [1] is T1, Polyunsaturated fatty acid lipoxygenase ALOX15 (Oryctolagus cuniculus, UniProt P12530).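 Note: inhibition of 15-lipoxygenase enzyme activity measured with linoleic acid as the substrate; in other assays of this panel Not Active means under 50% inhibition at 10 µM.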
T1 sequence (P12530 whole entry): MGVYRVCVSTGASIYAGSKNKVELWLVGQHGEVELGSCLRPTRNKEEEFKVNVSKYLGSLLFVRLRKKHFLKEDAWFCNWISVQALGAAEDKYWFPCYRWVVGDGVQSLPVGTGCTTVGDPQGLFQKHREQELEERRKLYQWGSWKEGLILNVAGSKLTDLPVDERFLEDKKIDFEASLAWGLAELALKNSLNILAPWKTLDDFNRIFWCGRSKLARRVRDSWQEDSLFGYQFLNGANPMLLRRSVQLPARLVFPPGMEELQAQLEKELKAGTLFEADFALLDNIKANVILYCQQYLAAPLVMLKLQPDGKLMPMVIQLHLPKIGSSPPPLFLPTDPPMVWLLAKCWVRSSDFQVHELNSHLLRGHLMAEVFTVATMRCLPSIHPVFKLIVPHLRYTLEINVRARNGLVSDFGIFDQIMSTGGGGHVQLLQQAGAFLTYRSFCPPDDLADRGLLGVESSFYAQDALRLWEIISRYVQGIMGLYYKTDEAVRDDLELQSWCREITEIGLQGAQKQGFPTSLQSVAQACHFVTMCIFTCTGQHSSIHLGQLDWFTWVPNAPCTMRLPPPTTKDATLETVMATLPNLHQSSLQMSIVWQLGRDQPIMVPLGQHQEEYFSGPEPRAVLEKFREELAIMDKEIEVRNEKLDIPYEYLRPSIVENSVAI
The experiment in a line: biochemical. It is filed as tissue-based, Reticulocytes.

For assay [2], the target named is Prostaglandin G/H synthase 1 (Homo sapiens, UniProt P23219). Briefly: biochemical. It is filed as tissue-based, Platelet.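 Note: inhibition of COX-1 enzyme activity, with arachidonic acid supplied as substrate; in other assays of this panel Not Active means under 50% inhibition at 10 µM.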
In the next assay the target is T2, Substance-K receptor (Homo sapiens, UniProt P21452). Note: in other assays of this panel Not Active means under 50% inhibition at 10 µM.
T2 sequence (P21452 whole entry): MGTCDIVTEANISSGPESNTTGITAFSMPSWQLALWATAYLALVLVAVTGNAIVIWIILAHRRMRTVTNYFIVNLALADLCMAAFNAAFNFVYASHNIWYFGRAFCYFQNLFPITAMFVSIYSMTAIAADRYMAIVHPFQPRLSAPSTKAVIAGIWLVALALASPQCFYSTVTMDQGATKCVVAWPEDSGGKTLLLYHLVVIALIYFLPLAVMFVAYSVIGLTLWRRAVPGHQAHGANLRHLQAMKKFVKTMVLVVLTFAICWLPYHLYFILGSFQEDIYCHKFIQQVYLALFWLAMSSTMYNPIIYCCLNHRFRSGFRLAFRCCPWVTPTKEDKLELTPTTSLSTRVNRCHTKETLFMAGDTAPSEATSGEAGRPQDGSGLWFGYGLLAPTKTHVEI
It is filed as cell membranes, CHO, Membrane.

The next assay addresses Acetylcholinesterase (Homo sapiens, UniProt P22303). The experiment in a line: DRUGMATRIX: Acetylcholinesterase enzyme inhibition (substrate: acetylthiocholine). It is filed as cell-based, HEK293. To be noted: Not Active = under 50% inhibition at 10 µM.
Assay [3] deals with Beta-3 adrenergic receptor (Homo sapiens, UniProt P13945). Briefly: DRUGMATRIX: Adrenergic beta3 radioligand binding (ligand: [125I] Cyanopindolol). It is filed as cell membranes, HEK293, Membrane. To be noted: hek293; Not Active = under 50% inhibition at 10 µM.
Beta-3 adrenergic receptor, sequence (P13945 whole entry): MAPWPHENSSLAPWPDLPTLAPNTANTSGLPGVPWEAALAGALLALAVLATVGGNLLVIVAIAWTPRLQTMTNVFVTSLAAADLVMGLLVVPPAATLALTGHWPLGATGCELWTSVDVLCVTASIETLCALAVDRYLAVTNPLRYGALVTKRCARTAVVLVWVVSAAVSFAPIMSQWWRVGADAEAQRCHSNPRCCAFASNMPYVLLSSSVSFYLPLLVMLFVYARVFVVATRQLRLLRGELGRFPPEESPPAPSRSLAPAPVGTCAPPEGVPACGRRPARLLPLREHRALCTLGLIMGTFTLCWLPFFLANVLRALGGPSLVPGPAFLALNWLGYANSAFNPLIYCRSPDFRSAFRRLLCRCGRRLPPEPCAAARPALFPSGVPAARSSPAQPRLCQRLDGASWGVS

Acetylcholinesterase, sequence (P22303 whole entry): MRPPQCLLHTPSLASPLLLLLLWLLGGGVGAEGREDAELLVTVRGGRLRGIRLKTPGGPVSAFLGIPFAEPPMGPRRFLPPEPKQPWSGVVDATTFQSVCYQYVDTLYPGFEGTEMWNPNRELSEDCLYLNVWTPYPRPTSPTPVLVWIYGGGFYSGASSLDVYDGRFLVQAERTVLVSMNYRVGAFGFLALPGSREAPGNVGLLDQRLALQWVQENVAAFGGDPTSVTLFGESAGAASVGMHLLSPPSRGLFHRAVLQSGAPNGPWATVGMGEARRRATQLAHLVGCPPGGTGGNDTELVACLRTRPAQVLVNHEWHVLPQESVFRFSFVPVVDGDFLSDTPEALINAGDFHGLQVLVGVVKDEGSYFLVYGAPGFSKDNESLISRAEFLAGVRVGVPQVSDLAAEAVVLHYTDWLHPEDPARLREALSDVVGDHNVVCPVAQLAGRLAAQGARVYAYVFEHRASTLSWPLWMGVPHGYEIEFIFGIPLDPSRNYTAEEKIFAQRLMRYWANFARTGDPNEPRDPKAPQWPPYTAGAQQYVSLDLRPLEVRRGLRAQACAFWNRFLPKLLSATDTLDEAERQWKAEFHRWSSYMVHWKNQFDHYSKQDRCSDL
Prostaglandin G/H synthase 1, sequence (P23219 whole entry): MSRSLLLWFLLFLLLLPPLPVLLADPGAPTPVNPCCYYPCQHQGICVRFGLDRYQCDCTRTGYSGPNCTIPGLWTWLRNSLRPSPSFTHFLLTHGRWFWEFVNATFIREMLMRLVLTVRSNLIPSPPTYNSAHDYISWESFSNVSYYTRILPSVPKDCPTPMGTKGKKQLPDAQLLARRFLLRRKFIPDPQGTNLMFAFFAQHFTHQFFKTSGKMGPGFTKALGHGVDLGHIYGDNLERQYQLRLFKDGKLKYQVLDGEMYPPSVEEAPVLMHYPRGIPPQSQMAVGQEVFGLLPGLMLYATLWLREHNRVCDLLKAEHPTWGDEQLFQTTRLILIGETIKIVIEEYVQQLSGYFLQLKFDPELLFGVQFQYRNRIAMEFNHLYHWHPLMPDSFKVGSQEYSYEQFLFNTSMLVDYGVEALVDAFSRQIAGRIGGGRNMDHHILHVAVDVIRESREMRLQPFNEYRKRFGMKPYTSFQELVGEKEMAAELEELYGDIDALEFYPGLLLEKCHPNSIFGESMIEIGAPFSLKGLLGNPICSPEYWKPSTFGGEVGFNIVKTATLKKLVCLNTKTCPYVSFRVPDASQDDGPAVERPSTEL

In the case of `CC#C[C@]1(O)CC[C@H]2[C@@H]3CCC4=CC(=O)CCC4=C3[C@@H](c3ccc(N(C)C)cc3)C[C@@]21C` [MIFEPRISTONE], the IC50 in assay [1] (read-out: IC50) is 0.555 µM; in assay [2] (platelet), “Not Active”; against Substance-K receptor (cho), “Not Active”; against Acetylcholinesterase (hek293), “Not Active”; in assay [3], “Not Active”.
Take `Cc1[nH]c(=O)c(C#N)cc1-c1ccncc1` [MILRINONE]: the IC50 result (in assay [1] (reticulocytes); in assay [2] (platelet); against Substance-K receptor (cho); at Acetylcholinesterase (hek293); in assay [3]) was “Not Active” in each case.
In the case of `CCN(CC)N=O` [N-NITROSODIETHYLAMINE], the IC50 entry (in assay [1] (reticulocytes); in assay [2] (platelet); against Substance-K receptor (cho); on Acetylcholinesterase (hek293); in assay [3]) was “Not Active” throughout.
`Cc1ccc(S(=O)(=O)NC(=O)NN2CCCCCC2)cc1` [TOLAZAMIDE]: the IC50 in assay [1] (read-out: IC50) was 5.11 µM; in assay [2] (platelet), “Not Active”; on Substance-K receptor (cho) it was “Not Active”; on Acetylcholinesterase (hek293) it was “Not Active”; in assay [3] it was “Not Active”.
In the case of `CC(O)C(=O)O` (stereo unspecified) [LACTIC ACID], the IC50 entry (in assay [1] (reticulocytes); in assay [2] (platelet); against Substance-K receptor (cho); against Acetylcholinesterase (hek293); in assay [3]) was “Not Active” each time.
Consider `CCOC(=O)C1=C(C)NC(C)=C(C(=O)OCC)C1c1ccccc1/C=C/C(=O)OC(C)(C)C` [LACIDIPINE], for which the IC50 entry (in assay [1] (reticulocytes); in assay [2] (platelet); against Substance-K receptor (cho); on Acetylcholinesterase (hek293); in assay [3]) was “Not Active” in each case.
With `CC(N)C12CC3CC(CC(C3)C1)C2` (stereo unspecified) [RIMANTADINE], the IC50 result (in assay [1] (reticulocytes); in assay [2] (platelet); against Substance-K receptor (cho); against Acetylcholinesterase (hek293); in assay [3]) was “Not Active” throughout.
For `CC(Cl)(Cl)Cl` [TRICHLOROETHANE], the IC50 result (in assay [1] (reticulocytes); in assay [2] (platelet); against Substance-K receptor (cho); against Acetylcholinesterase (hek293); in assay [3]) was “Not Active” in each case.
On to `O=C(O)c1cc(/N=N/c2ccc(S(=O)(=O)Nc3ccccn3)cc2)ccc1O` [SULFASALAZINE], for which the IC50 result (in assay [1] (reticulocytes); in assay [2] (platelet); at Substance-K receptor (cho); against Acetylcholinesterase (hek293); in assay [3]) was “Not Active” each time.
For `Cc1cccc(C)c1NC(=O)C(C)N` (stereo unspecified) [TOCAINIDE], the IC50 entry (in assay [1] (reticulocytes); in assay [2] (platelet); against Substance-K receptor (cho); against Acetylcholinesterase (hek293); in assay [3]) was “Not Active” throughout.
With `CO[C@@]12[C@H](COC(N)=O)C3=C(C(=O)C(C)=C(N)C3=O)N1C[C@@H]1N[C@@H]12` [MITOMYCIN], the IC50 entry (in assay [1] (reticulocytes); in assay [2] (platelet); against Substance-K receptor (cho); against Acetylcholinesterase (hek293); in assay [3]) was “Not Active” in each case.
Take `Nc1nc(N)c2nc(-c3ccccc3)c(N)nc2n1`: the IC50 result (in assay [1] (reticulocytes); in assay [2] (platelet); against Substance-K receptor (cho); against Acetylcholinesterase (hek293); in assay [3]) was “Not Active” throughout.
Turning to `CC1=C(/C=C/C(C)=C/C=C/C(C)=C/C(=O)O)C(C)(C)CCC1` [TRETINOIN], the IC50 entry (in assay [1] (reticulocytes); in assay [2] (platelet); against Substance-K receptor (cho); at Acetylcholinesterase (hek293); in assay [3]) was “Not Active” throughout.
`CC[C@@]1(O)C(=O)OCc2c1cc1n(c2=O)Cc2cc3c(CN(C)C)c(O)ccc3nc2-1` [TOPOTECAN]: the IC50 result (in assay [1] (reticulocytes); in assay [2] (platelet); against Substance-K receptor (cho); against Acetylcholinesterase (hek293); in assay [3]) was “Not Active” each time.
As to `Cc1ccc(Cl)c(Nc2ccccc2C(=O)O)c1Cl` [MECLOFENAMIC ACID], the IC50 entry in assay [1] (reticulocytes) is “Not Active”; in assay [2] (read-out: IC50), 0.203 µM; against Substance-K receptor (cho), “Not Active”; at Acetylcholinesterase (hek293), “Not Active”; in assay [3], “Not Active”.
`CCOc1cc(N)c(Cl)cc1C(=O)NCC1CN(Cc2ccc(F)cc2)CCO1` (stereo unspecified) [MOSAPRIDE]: the IC50 result (in assay [1] (reticulocytes); in assay [2] (platelet); against Substance-K receptor (cho); against Acetylcholinesterase (hek293); in assay [3]) was “Not Active” in each case.
With `CN1C[C@H](CNC(=O)OCc2ccccc2)C[C@@H]2c3cccc4c3c(cn4C)C[C@H]21` [METERGOLINE], the IC50 result in assay [1] (reticulocytes) was “Not Active”; in assay [2] (platelet), “Not Active”; at Substance-K receptor (read-out: IC50), 4.07 µM; at Acetylcholinesterase (read-out: IC50) it was 1.34 µM; in assay [3] it was “Not Active”. Further, the Ki at Substance-K receptor (read-out: Ki) stood at 1.36 µM.
In the case of `Cc1cc2c(s1)Nc1ccccc1N=C2N1CCN(C)CC1` [OLANZAPINE], the IC50 in assay [1] (read-out: IC50) is 2.77 µM; in assay [2] (platelet), “Not Active”; on Substance-K receptor (cho), “Not Active”; against Acetylcholinesterase (hek293), “Not Active”; in assay [3], “Not Active”.
For `C1CCN2C[C@@H]3C[C@@H](CN4CCCC[C@@H]34)[C@H]2C1` [SPARTEINE], the IC50 entry (in assay [1] (reticulocytes); in assay [2] (platelet); against Substance-K receptor (cho); on Acetylcholinesterase (hek293); in assay [3]) was “Not Active” in each case.
Turning to `CO[C@@H]1[C@@H](OC)[C@H](C)[C@@](O)(CC(=O)O)O[C@H]1[C@H](C)[C@H]1O[C@@]2(CC[C@@](C)([C@H]3CC[C@@](C)([C@@H]4O[C@@H]([C@H]5O[C@](C)(O)[C@H](C)C[C@@H]5C)C[C@@H]4O[C@@H]4C[C@H](OC)[C@@H](OC)[C@H](C)O4)O3)O2)C[C@H](O)[C@H]1C.N` [MADURAMICIN], the IC50 entry (in assay [1] (reticulocytes); in assay [2] (platelet); on Substance-K receptor (cho); against Acetylcholinesterase (hek293); in assay [3]) was “Not Active” each time.
On to `CN1C(=O)OC(C)(C)C1=O` [TRIMETHADIONE], for which the IC50 result (in assay [1] (reticulocytes); in assay [2] (platelet); against Substance-K receptor (cho); at Acetylcholinesterase (hek293); in assay [3]) was “Not Active” in each case.
Consider `CC1(C)[C@H](C(=O)O)N2C(=O)C[C@H]2S1(=O)=O` [SULBACTAM], for which the IC50 entry (in assay [1] (reticulocytes); in assay [2] (platelet); against Substance-K receptor (cho); against Acetylcholinesterase (hek293); in assay [3]) was “Not Active” throughout.

The IC50 is the midpoint of a concentration-inhibition curve. In general, Ki refers to a dissociation constant, usually derived from enzyme kinetics or from competition with a known ligand.
